{"source": "patent US20240165282A1", "about": "“CONFORMATIONAL CONSTRAINED SOMATOSTATIN RECEPTOR 3 PEPTIDE LIGANDS AND THEIR CONJUGATES AND USES THEREOF” (STARGET PHARMA LTD., priority 2021, published 2024)", "experiment_in_all_cases": "Cerep off-target radioligand binding", "key": {"5-HT transporter (h)": {"target": "T1, 5-HT transporter (h) (Homo sapiens, UniProt P31645)", "T1 construct": "Eurofins Cerep (contract assay)", "details": "1 micromolar; antagonist radioligand; read-out: % Activity: Inhibition of Control Specific Binding", "method": "(§1) In this example, off-target interactions for SEQ ID NO.\n(§2) The assays were performed by Eurofins Cerep (Celle 1'Evescault, France). Compound binding was calculated as a % inhibition of the binding of a radioactively labeled ligand specific for each target. Compound enzyme inhibition effect was calculated as a % inhibition of control enzyme activity. In each experiment and if applicable, the respective reference compound was tested concurrently with SEQ ID NO. 3, and the data were compared with historical values determined at Eurofins. The experiment was accepted in accordance with Eurofins validation Standard Operating Procedure. Results showing an inhibition (or stimulation for assays run in basal conditions) higher than 50% are considered to represent significant effects of the test compounds."}, "5-HT1A (h)": {"target": "T2, 5-HT1A (h) (Homo sapiens, UniProt P08908)", "T2 construct": "Eurofins Cerep (contract assay)", "details": "1 micromolar; agonist radioligand; read-out: % Activity: Inhibition of Control Specific Binding", "method": "as §1, §2"}, "5-HT2A (h)": {"target": "T3, 5-HT2A (h) (Homo sapiens, UniProt P28223)", "T3 construct": "Eurofins Cerep (contract assay)", "T3 sequence (P28223 whole entry)": "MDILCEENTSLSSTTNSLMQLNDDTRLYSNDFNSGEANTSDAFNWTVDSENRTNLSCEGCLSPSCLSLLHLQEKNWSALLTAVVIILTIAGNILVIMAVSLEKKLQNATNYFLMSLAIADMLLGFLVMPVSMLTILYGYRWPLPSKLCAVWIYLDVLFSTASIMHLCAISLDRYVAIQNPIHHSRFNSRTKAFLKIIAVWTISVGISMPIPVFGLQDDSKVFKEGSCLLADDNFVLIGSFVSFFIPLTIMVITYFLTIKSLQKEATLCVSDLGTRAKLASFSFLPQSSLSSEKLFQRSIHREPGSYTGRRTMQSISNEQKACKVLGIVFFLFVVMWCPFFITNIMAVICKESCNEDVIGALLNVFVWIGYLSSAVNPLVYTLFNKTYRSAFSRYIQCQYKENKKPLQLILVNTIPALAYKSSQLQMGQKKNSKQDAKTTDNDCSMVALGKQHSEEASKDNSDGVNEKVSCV", "details": "1 micromolar; agonist radioligand; read-out: % Activity: Inhibition of Control Specific Binding", "method": "as §1, §2"}, "5-HT2B (h)": {"target": "T4, 5-HT2B (h) (Homo sapiens, UniProt P41595)", "T4 construct": "Eurofins Cerep (contract assay)", "details": "1 micromolar; agonist radioligand; read-out: % Activity: Inhibition of Control Specific Binding", "method": "as §1, §2"}, "5-HT3 (h)": {"target": "T5, 5-HT3 (h) (Homo sapiens, UniProt P46098)", "T5 construct": "Eurofins Cerep (contract assay)", "details": "1 micromolar; antagonist radioligand; read-out: % Activity: Inhibition of Control Specific Binding", "method": "as §1, §2"}, "A2A (h)": {"target": "A2A (h) (Homo sapiens, UniProt P29274)", "sequence (P29274 whole entry)": "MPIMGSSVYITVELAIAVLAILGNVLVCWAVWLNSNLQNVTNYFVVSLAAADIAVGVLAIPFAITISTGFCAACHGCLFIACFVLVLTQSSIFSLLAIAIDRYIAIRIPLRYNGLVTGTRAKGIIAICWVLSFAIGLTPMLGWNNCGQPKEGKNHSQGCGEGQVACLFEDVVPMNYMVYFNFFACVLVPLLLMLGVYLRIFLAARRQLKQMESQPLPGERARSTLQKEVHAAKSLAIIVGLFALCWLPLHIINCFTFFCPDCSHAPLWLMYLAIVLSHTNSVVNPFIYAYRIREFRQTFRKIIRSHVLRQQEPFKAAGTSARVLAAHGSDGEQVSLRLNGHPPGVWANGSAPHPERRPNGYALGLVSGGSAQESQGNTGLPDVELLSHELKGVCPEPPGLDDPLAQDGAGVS", "details": "1 micromolar; agonist radioligand; read-out: % Activity: Inhibition of Control Specific Binding", "method": "as §1, §2"}, "CB1 (h)": {"target": "CB1 (h) (Homo sapiens, UniProt P21554)", "sequence (P21554 whole entry)": "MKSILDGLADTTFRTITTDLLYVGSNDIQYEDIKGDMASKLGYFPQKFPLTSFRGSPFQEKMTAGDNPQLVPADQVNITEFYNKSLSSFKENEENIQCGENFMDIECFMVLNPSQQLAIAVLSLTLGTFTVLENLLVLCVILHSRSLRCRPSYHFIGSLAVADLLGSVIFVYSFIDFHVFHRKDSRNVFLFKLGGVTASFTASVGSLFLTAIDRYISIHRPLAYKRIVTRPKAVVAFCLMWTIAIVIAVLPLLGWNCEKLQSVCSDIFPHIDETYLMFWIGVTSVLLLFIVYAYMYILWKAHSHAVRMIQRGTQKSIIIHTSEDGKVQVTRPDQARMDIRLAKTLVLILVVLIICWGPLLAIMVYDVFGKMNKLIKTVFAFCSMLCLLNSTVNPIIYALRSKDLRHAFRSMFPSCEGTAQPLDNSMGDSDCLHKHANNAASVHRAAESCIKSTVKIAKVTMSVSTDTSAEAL", "details": "1 micromolar; agonist radioligand; read-out: % Activity: Inhibition of Control Specific Binding", "method": "as §1, §2"}, "CB2 (h)": {"target": "CB2 (h) (Homo sapiens, UniProt P34972)", "details": "1 micromolar; agonist radioligand; read-out: % Activity: Inhibition of Control Specific Binding", "method": "as §1, §2"}, "CCK1 (CCKA) (h)": {"target": "CCK1 (CCKA) (h) (Homo sapiens, UniProt P32238)", "details": "1 micromolar; agonist radioligand; read-out: % Activity: Inhibition of Control Specific Binding", "method": "as §1, §2"}, "D1 (h)": {"target": "D1 (h) (Homo sapiens, UniProt P21728)", "details": "1 micromolar; antagonist radioligand; read-out: % Activity: Inhibition of Control Specific Binding", "method": "as §1, §2"}, "D2S (h)": {"target": "D2S (h) (Homo sapiens, UniProt P14416)", "details": "1 micromolar; agonist radioligand; read-out: % Activity: Inhibition of Control Specific Binding", "method": "as §1, §2"}, "ETA (h)": {"target": "ETA (h) (Homo sapiens, UniProt P25101)", "details": "1 micromolar; agonist radioligand; read-out: % Activity: Inhibition of Control Specific Binding", "method": "as §1, §2"}, "GR (h)": {"target": "T6, GR (h) (Homo sapiens, UniProt P04150)", "T6 construct": "Eurofins Cerep (contract assay)", "T6 sequence (P04150 whole entry)": "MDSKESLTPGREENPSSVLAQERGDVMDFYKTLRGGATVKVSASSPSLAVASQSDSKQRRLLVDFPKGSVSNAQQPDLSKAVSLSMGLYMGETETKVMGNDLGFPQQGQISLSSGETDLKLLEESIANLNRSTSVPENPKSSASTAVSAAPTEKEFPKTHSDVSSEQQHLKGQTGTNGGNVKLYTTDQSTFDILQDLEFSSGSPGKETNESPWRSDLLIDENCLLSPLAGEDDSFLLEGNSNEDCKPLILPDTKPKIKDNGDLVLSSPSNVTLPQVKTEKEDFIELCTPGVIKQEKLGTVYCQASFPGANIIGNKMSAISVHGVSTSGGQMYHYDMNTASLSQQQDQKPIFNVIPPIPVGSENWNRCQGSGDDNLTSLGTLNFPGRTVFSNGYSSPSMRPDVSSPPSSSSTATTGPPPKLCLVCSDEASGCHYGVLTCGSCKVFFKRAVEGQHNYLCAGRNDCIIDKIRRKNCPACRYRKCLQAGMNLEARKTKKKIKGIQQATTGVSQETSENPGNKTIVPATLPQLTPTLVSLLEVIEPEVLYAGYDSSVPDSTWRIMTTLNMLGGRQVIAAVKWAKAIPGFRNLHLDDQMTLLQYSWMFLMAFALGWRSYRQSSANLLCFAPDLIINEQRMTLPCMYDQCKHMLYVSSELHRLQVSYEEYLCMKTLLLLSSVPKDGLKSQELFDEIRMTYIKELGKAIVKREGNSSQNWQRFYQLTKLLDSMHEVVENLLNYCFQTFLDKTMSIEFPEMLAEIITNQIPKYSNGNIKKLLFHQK", "details": "1 micromolar; agonist radioligand; read-out: % Activity: Inhibition of Control Specific Binding", "method": "as §1, §2"}, "H1 (h)": {"target": "H1 (h) (Homo sapiens, UniProt P35367)", "details": "1 micromolar; antagonist radioligand; read-out: % Activity: Inhibition of Control Specific Binding", "method": "as §1, §2"}, "H2 (h)": {"target": "H2 (h) (Homo sapiens, UniProt P25021)", "sequence (P25021 whole entry)": "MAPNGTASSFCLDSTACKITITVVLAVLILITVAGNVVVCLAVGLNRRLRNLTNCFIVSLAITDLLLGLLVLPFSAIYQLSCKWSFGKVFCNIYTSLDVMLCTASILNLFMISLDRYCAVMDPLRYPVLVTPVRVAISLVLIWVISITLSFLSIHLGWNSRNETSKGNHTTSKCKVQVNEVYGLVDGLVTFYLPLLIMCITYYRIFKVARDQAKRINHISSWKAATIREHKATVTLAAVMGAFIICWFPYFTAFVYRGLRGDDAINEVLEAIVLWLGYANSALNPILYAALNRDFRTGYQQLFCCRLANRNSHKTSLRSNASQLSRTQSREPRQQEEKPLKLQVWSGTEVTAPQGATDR", "details": "1 micromolar; antagonist radioligand; read-out: % Activity: Inhibition of Control Specific Binding", "method": "as §1, §2"}, "M1 (h)": {"target": "M1 (h) (Homo sapiens, UniProt P11229)", "details": "1 micromolar; antagonist radioligand; read-out: % Activity: Inhibition of Control Specific Binding", "method": "as §1, §2"}, "M2 (h)": {"target": "M2 (h) (Homo sapiens, UniProt P08172)", "details": "1 micromolar; antagonist radioligand; read-out: % Activity: Inhibition of Control Specific Binding", "method": "as §1, §2"}, "M3 (h)": {"target": "M3 (h) (Homo sapiens, UniProt P20309)", "details": "1 micromolar; antagonist radioligand; read-out: % Activity: Inhibition of Control Specific Binding", "method": "as §1, §2"}, "[1]": {"target": "N neuronal alpha 4beta 2 (h) (Homo sapiens, UniProt P17787+P43681)", "details": "1 micromolar; agonist radioligand; read-out: % Activity: Inhibition of Control Specific Binding", "method": "as §1, §2"}, "[2]": {"target": "T7, Potassium Channel hERG (human) (Homo sapiens, UniProt Q12809)", "T7 construct": "Eurofins Cerep (contract assay)", "details": "[3H] Dofetilide, read-out: % Activity: Inhibition of Control Specific Binding", "method": "as §1, §2"}, "V1a (h)": {"target": "T8, V1a (h) (Homo sapiens, UniProt P37288)", "T8 construct": "Eurofins Cerep (contract assay)", "details": "1 micromolar; agonist radioligand; read-out: % Activity: Inhibition of Control Specific Binding", "method": "as §1, §2"}, "alpha 1A (h)": {"target": "alpha 1A (h) (Homo sapiens, UniProt P35348)", "details": "1 micromolar; antagonist radioligand; read-out: % Activity: Inhibition of Control Specific Binding", "method": "as §1, §2"}, "alpha 2A (h)": {"target": "alpha 2A (h) (Homo sapiens, UniProt P08913)", "sequence (P08913 whole entry)": "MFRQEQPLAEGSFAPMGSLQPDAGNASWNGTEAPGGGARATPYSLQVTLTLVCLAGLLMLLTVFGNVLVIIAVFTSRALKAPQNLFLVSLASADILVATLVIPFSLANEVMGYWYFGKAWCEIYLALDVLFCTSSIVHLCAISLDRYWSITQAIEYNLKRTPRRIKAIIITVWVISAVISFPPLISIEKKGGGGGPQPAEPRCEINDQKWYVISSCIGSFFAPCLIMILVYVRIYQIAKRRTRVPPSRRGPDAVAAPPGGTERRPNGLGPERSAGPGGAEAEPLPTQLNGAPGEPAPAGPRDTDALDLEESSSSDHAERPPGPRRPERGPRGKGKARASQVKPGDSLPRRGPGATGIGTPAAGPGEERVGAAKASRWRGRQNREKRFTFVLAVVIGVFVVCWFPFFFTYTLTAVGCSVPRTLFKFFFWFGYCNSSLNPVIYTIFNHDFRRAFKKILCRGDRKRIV", "details": "1 micromolar; antagonist radioligand; read-out: % Activity: Inhibition of Control Specific Binding", "method": "as §1, §2"}, "beta 1 (h)": {"target": "beta 1 (h) (Homo sapiens, UniProt P08588)", "sequence (P08588 whole entry)": "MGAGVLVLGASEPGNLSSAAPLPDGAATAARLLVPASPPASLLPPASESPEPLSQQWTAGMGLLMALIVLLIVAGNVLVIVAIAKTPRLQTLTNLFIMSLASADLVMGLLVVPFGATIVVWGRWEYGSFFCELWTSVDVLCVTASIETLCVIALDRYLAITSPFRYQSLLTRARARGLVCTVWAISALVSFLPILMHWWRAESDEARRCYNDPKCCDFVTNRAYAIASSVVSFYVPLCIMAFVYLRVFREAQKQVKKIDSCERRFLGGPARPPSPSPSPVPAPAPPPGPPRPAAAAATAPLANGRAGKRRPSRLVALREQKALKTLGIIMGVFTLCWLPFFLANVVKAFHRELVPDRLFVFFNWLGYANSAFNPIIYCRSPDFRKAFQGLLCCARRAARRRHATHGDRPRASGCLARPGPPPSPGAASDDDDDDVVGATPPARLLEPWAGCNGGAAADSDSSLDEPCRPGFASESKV", "details": "1 micromolar; agonist radioligand; read-out: % Activity: Inhibition of Control Specific Binding", "method": "as §1, §2"}, "beta 2 (h)": {"target": "beta 2 (h) (Homo sapiens, UniProt P07550)", "details": "1 micromolar; antagonist radioligand; read-out: % Activity: Inhibition of Control Specific Binding", "method": "as §1, §2"}, "delta (DOP) (h)": {"target": "delta (DOP) (h) (Homo sapiens, UniProt P41143)", "details": "1 micromolar; agonist radioligand; read-out: % Activity: Inhibition of Control Specific Binding", "method": "as §1, §2"}, "dopamine transporter (h)": {"target": "T9, dopamine transporter (h) (Homo sapiens, UniProt Q01959)", "T9 construct": "Eurofins Cerep (contract assay)", "T9 sequence (Q01959 whole entry)": "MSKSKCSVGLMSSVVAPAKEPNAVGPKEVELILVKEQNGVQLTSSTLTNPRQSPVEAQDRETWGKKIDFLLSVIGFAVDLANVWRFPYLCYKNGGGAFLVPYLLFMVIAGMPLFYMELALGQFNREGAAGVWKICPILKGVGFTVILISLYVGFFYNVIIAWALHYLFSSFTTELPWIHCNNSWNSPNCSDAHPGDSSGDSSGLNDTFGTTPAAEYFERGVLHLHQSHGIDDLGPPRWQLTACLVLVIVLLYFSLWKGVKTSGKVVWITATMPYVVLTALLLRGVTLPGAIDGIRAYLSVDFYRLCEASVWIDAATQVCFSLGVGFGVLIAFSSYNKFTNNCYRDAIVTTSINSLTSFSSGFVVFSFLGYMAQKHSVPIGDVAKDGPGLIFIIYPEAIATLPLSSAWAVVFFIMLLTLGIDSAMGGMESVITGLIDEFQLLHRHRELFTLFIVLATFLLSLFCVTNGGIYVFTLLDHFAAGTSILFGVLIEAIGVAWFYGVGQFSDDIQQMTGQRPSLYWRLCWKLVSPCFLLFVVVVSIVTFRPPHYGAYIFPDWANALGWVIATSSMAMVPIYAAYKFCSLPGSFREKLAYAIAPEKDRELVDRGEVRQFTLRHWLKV", "details": "1 micromolar; antagonist radioligand; read-out: % Activity: Inhibition of Control Specific Binding", "method": "as §1, §2"}, "kappa (h) (KOP)": {"target": "kappa (h) (KOP) (Homo sapiens, UniProt P41145)", "sequence (P41145 whole entry)": "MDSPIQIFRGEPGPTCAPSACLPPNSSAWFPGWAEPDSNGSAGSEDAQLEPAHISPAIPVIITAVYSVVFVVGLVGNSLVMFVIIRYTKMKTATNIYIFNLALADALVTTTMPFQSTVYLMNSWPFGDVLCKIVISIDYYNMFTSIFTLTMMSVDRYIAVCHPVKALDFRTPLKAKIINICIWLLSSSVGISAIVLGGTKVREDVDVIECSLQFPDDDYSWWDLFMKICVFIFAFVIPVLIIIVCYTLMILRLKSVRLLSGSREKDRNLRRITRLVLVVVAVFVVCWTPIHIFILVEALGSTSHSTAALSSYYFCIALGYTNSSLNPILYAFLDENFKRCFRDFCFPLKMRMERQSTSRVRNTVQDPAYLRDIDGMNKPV", "details": "1 micromolar; agonist radioligand; read-out: % Activity: Inhibition of Control Specific Binding", "method": "as §1, §2"}, "mu (MOP) (h)": {"target": "T10, mu (MOP) (h) (Homo sapiens, UniProt P35372)", "T10 construct": "Eurofins Cerep (contract assay)", "T10 sequence (P35372 whole entry)": "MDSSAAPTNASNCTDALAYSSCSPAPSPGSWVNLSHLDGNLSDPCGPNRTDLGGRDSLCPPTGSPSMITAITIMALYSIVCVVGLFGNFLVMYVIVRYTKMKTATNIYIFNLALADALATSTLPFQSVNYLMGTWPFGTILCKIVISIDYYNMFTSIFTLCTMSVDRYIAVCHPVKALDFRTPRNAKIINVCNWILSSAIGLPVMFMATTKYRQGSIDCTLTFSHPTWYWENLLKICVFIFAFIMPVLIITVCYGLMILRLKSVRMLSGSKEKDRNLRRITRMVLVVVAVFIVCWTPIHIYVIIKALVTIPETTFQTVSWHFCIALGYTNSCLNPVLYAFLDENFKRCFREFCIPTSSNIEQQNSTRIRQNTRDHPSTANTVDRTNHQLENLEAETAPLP", "details": "1 micromolar; agonist radioligand; read-out: % Activity: Inhibition of Control Specific Binding", "method": "as §1, §2"}, "[3]": {"target": "T11, norepinephrine transporter (h) (Homo sapiens, UniProt P23975)", "T11 construct": "Eurofins Cerep (contract assay)", "details": "1 micromolar; antagonist radioligand; read-out: % Activity: Inhibition of Control Specific Binding", "method": "as §1, §2"}}, "note": "*1 amine or outer side, *2 acyl side, *3 side chain or, on linkers, in order; H or OH if unused. Where a SMILES comes first, the peptide text is derived from it. Bridges are numbered along the chain shown (N, C = ends). [ ]: non-standard residue; d: D form. The star is where a group is joined. DOTA = O=C(O)CN1CCN(CC(=O)O)CCN(CC(=O)*)CCN(CC(=O)O)CC1; N(2-mercaptoethyl)Gly = O=C(CN(CCS[*:3])[*:1])[*:2]", "data": [{"smiles": "C[C@@H](O)[C@@H]1NC(=O)[C@H](CCCCN)NC(=O)[C@@H](Cc2c[nH]c3ccccc23)NC(=O)[C@H](Cc2ccccc2)NC(=O)[C@@H](NC(=O)[C@H](CCCNC(=N)N)NC(=O)[C@@H](Cc2ccccc2)NC(=O)CN2CCN(CC(=O)O)CCN(CC(=O)O)CCN(CC(=O)O)CC2)CSSCCN(CC(N)=O)C(=O)[C@H](Cc2ccccc2)NC1=O", "note": "[SEQ ID NO: 3, DOTA-D-Phe^1-Arg^2-Cys^3-Phe^4-D-Trp^5-Lys^6-Thr^7-Phe^8-NTEG^9-NH2 cyclo 3-9] ({DOTA}-[dF]RCF[dW]KTF[N(2-mercaptoethyl)Gly]-NH2; disulfide 3-9)", "values": [{"measurement": "inhibition at 1 µM", "setting": "5-HT transporter (h)", "value": -9, "unit": "%"}, {"measurement": "inhibition at 1 µM", "setting": "5-HT1A (h)", "value": -3, "unit": "%"}, {"measurement": "inhibition at 1 µM", "setting": "5-HT2A (h)", "value": -2, "unit": "%"}, {"measurement": "inhibition at 1 µM", "setting": "5-HT2B (h)", "value": -31, "unit": "%"}, {"measurement": "inhibition at 1 µM", "setting": "5-HT3 (h)", "value": 1, "unit": "%"}, {"measurement": "inhibition at 1 µM", "setting": "A2A (h)", "value": 0, "unit": "%"}, {"measurement": "inhibition at 1 µM", "setting": "CB1 (h)", "value": 1, "unit": "%"}, {"measurement": "inhibition at 1 µM", "setting": "CB2 (h)", "value": -1, "unit": "%"}, {"measurement": "inhibition at 1 µM", "setting": "CCK1 (CCKA) (h)", "value": -15, "unit": "%"}, {"measurement": "inhibition at 1 µM", "setting": "D1 (h)", "value": -1, "unit": "%"}, {"measurement": "inhibition at 1 µM", "setting": "D2S (h)", "value": 3, "unit": "%"}, {"measurement": "inhibition at 1 µM", "setting": "ETA (h)", "value": -3, "unit": "%"}, {"measurement": "inhibition at 1 µM", "setting": "GR (h)", "value": -10, "unit": "%"}, {"measurement": "inhibition at 1 µM", "setting": "H1 (h)", "value": 7, "unit": "%"}, {"measurement": "inhibition at 1 µM", "setting": "H2 (h)", "value": -7, "unit": "%"}, {"measurement": "inhibition at 1 µM", "setting": "M1 (h)", "value": -3, "unit": "%"}, {"measurement": "inhibition at 1 µM", "setting": "M2 (h)", "value": -4, "unit": "%"}, {"measurement": "inhibition at 1 µM", "setting": "M3 (h)", "value": -7, "unit": "%"}, {"measurement": "inhibition at 1 µM", "setting": "[1]", "value": -4, "unit": "%"}, {"measurement": "inhibition at 1 micromolar", "setting": "[2]", "value": -9, "unit": "%"}, {"measurement": "inhibition at 1 µM", "setting": "V1a (h)", "value": 0, "unit": "%"}, {"measurement": "inhibition at 1 µM", "setting": "alpha 1A (h)", "value": -1, "unit": "%"}, {"measurement": "inhibition at 1 µM", "setting": "alpha 2A (h)", "value": 2, "unit": "%"}, {"measurement": "inhibition at 1 µM", "setting": "beta 1 (h)", "value": 5, "unit": "%"}, {"measurement": "inhibition at 1 µM", "setting": "beta 2 (h)", "value": -6, "unit": "%"}, {"measurement": "inhibition at 1 µM", "setting": "delta (DOP) (h)", "value": 10, "unit": "%"}, {"measurement": "inhibition at 1 µM", "setting": "dopamine transporter (h)", "value": 12, "unit": "%"}, {"measurement": "inhibition at 1 µM", "setting": "kappa (h) (KOP)", "value": 10, "unit": "%"}, {"measurement": "inhibition at 1 µM", "setting": "mu (MOP) (h)", "value": 8, "unit": "%"}, {"measurement": "inhibition at 1 µM", "setting": "[3]", "value": -10, "unit": "%"}]}]}
